In ChEMBL document CHEMBL3886901, “Substituted azoles, antiviral active component, pharmaceutical composition, method for preparation and use thereof” (2016) one finds IC50 data, which are given here for six compounds.

One may read the pIC50 as the negative decadic logarithm of the IC50, by convention in mol/L.

pIC50: −log10 of the molar value.

A short description of the first assay: Immumoenzymatic Assay: Solutions of the tested compounds in DMEM medium {DMEM) 1x; Source: Cellgro; Catalogue: 10-013-CV} were prepared immediately before use. Eleven serial three fold dilutions with variation of concentrations from 20 nM to 0.2 pM were prepared. In 4 hours after seeding, serial dilutions of the compounds were added to the cells (100 ul to each well). Final concentration of tested compounds was varied from 10 nM to 0.1 pM, and DMSO4 0.5%. If it was necessary, higher concentrations of the disclosed azoles were investigated. Each dilution of the compound was tested on two identical wells. Then the cells were incubated for three days at 37° C./5% CO2 and fixed by addition of acetone/methanol (1:1) mixture in amount of 250 ul/well. In 1 min the cells were washed 3 times with PBS (Phosphate Buffered Saline) solution. Then the cells were blocked by addition of 10% fetal calf serum in PBS solution in amount of 150 ul/well for 1 h at room temperature. Then, the cells were incubated with mouse monoclonal antibodies to cor-antigen HCV, don C7-50 (Source: Affinity BioReagents; Catalogue: MA1-080) (100 ul/well, working dilution 1:500 in 10% fetal calf serum in PBS solution) for 2 h at 37° C. The cells were washed 6 times with PBS/0.05% Tween 20 solution, then, they were incubated for 1 h with goat anti-mouse immunoglobulin antibodies (conjugated with horseradish peroxidase, 100 ul/well, working dilution 1:2500 in 10% fetal calf serum in PBS solution). The cells were washed 6 times with PBS/0.05% Tween 20 solution, once with PBS solution, after that substrate (1 tablet of o-phenylenediamine (oPD)+12 ml citrate/phosphate buffer+5 ul 30% H2O2) in amount of 100 ul/well was added. The plates were kept for 30 min in the dark at room temperature. The reaction was arrested by the addition of 2N H2SO4 in amount of 100 ul/well, and optical density (wavelength 490 nm) was measured by means of multiscan plate reader Victor3 V 1420 (Perkin Elmer). IC50 values (azole concentration, lowering the level of virus RNA-replicon on 50%) for every tested azole were calculated with the help of XLfit 4 program.
Conditions: not given
In kind it is cell-based.
Consider `COC(=O)N[C@H](C(=O)N1CCC[C@H]1c1nc(C#CC#Cc2ccc(-c3c[nH]c([C@@H]4CCCN4C(=O)[C@@H](NC(=O)OC)C(C)C)n3)cc2)c[nH]1)C(C)C`, for which the pIC50 was 11.40.

The same assay, now with this note: 4 h.
Regarding `COC(=O)N[C@H](C(=O)N1CCC[C@H]1c1nc(C#CC#Cc2ccc3cc(-c4c[nH]c([C@@H]5CCCN5C(=O)[C@@H](NC(=O)OC)C(C)C)n4)ccc3c2)c[nH]1)C(C)C`, the pIC50 is 11.44.

Turning to `COC(=O)N[C@@H](C(=O)N1CCC[C@@H]1c1ncc(C#CC#Cc2ccc3cc(-c4cnc([C@H]5CCCN5C(=O)[C@H](NC(=O)OC)C(C)C)[nH]4)ccc3c2)[nH]1)C(C)C`, the pIC50 is 11.34.

Regarding `COC(=O)N[C@H](C(=O)N1CCC[C@@H]1c1nc(C#CC#Cc2ccc(-c3c[nH]c([C@@H]4CCCN4C(=O)[C@@H](NC(=O)OC)C(C)C)n3)cc2)c[nH]1)c1ccccc1`, the pIC50 was 11.27.

On to `COC(=O)N[C@@H](C(=O)N1CCC[C@H]1c1nc(-c2ccc(C#CC#Cc3c[nH]c([C@H]4CCCN4C(=O)[C@H](NC(=O)OC)C(C)C)n3)cc2)c[nH]1)c1ccccc1`, for which the pIC50 was 11.09.

Turning to `COC(=O)N[C@H](C(=O)N1CCC[C@H]1c1nc(-c2ccc(C#CC#Cc3c[nH]c([C@H]4CCCN4C(=O)[C@H](NC(=O)OC)C(C)C)n3)cc2)c[nH]1)c1ccccc1`, the pIC50 is 11.74.
